Tested on: CT26 tumours
Test: Syngeneic CT26 model, combination with epacadostat and anti-PD-L1 antibody
Assay type: in vivo, mouse
Details: suboptimal doses: OATD-02 50 mg/kg PO BID; epacadostat 30 mg/kg PO BID; anti-PD-L1 2.5 mg/kg IP days 8, 10, 12, 14, 16
Description: CT26 and K562 in vivo experiments were conducted at Molecure SA. All experimental procedures were approved by the 1st Local Ethics Committee in Warsaw (Poland). For the syngeneic CT26 model, 7–8-week old BALB/c females (n = 9–18 per group, BALB/cAnNCrl, Charles River Laboratories) were injected subcutaneously in the right flank with 5 × 10^5 CT26 cells. […] Anti-PD-L1 antibody (InVivoPlus anti-mouse PD-L1, clone 10F.9G2, BioXCell, lot 615416D1) was injected intraperitoneally at 2.5 mg/kg on days: 8, 10, 12, 14 and 16 post tumour cells inoculation. Control groups received vehicle (saline) or isotype antibody (InVivoPlus rat IgG2b, anti-KLH, BioXCell, lot 629816D1). For the xenograft K562 model, 7–8 week-old athymic nude mice (n = 8–11 per group, Crl:NU(NCr)-Foxn1^nu, Charles River Laboratories) or NK cell-deficient Fox Chase SCID Beige mice (n = 10–12 per group, CB17.Cg-Prkdc^scidLyst^bg-J/Crl, Charles River Laboratories) were injected subcutaneously in the right flank with 1 × 10^7 K562 cells. […] Tumour volume measured by a digital calliper (width × length × depth × π/6) was recorded three times per week. Animals were euthanized when tumours were necrotized or volume exceeded 2000 mm^3. Renca in vivo efficacy study was performed at Crown Biosciences Inc. (Taicang, China). […] Tumour volumes (length × width^2 × 0.5) were measured twice per week. […]

SMILES: NS(=O)(=O)NCCNc1nonc1C(=NO)Nc1ccc(F)c(Br)c1 [epacadostat, reference compound]
- TGI, CT26 tumor growth inhibition - day 24: 41%
